Reference: the supplement of paper PMC5908809

Columns and labels:
[1] = system: normal primary NK cells, pool 3 (3 donors) (IL-2 2.5 ng/mL); test: percent inhibition of viability; higher = more inhibition; conditions: 72 h
[2] = system: NK-92 (IL-2 2.5 ng/mL); test: as above; conditions: 72 h
[3] = system: SNK-6 (IL-2 2.5 ng/mL); test: as above; conditions: 72 h
[4] = system: normal primary NK cells, pool 1 (3 donors), resting (IL-2 0 ng/mL); test: as above; conditions: 72 h
[5] = system: YT (IL-2 2.5 ng/mL); test: as above; conditions: 72 h
[6] = system: normal primary NK cells, pool 2 (3 donors) (IL-2 2.5 ng/mL); test: as above; conditions: 72 h
[7] = system: normal primary NK cells, pool 1 (3 donors) (IL-2 2.5 ng/mL); test: as above; conditions: 72 h
[8] = system: DERL-7 (IL-2 2.5 ng/mL); test: as above; conditions: 72 h
[9] = system: IMC-1 (IL-2 20 ng/mL); test: as above; conditions: 72 h
[10] = system: NKL (IL-2 2.5 ng/mL); test: as above; conditions: 72 h
[11] = system: NK-YS (IL-2 2.5 ng/mL); test: as above; conditions: 72 h
[12] = system: KAI3 (IL-2 2.5 ng/mL); test: as above; conditions: 72 h
[13] = system: KHYG-1 (IL-2 2.5 ng/mL); test: as above; conditions: 72 h
[14] = system: normal NK cells expanded with K562-aAPC; test: drug sensitivity score (DSS) (DSS units); higher = more sensitive; extreme values may be limits of the assay; conditions: 72 h; IL-2 2.5 ng/mL
Experimental: (§1)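 Drug sensitivity and resistance testing on K562-aAPC-expanded normal NK cells: 5 concentrations (10-fold steps over a 10,000-fold range), 72 h at 37 °C, viability by CellTiter-Glo normalised to DMSO and benzethonium chloride controls; DSS from the fitted curve.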

[15] = system: normal NK cells expanded with K562-aAPC; test: percent inhibition of viability; higher = more inhibition; conditions: 72 h, IL-2 2.5 ng/mL
Experimental: as §1

[16] = system: normal primary NK cells, pool 3 (3 donors) (IL-2 2.5 ng/mL); test: drug sensitivity score (DSS) (DSS units); higher = more sensitive; extreme values may be limits of the assay; conditions: 72 h
[17] = system: NK-92 (IL-2 2.5 ng/mL); test: as above; conditions: 72 h
[18] = system: SNK-6 (IL-2 2.5 ng/mL); test: as above; conditions: 72 h
[19] = system: normal primary NK cells, pool 1 (3 donors), resting (IL-2 0 ng/mL); test: as above; conditions: 72 h
[20] = system: YT (IL-2 2.5 ng/mL); test: as above; conditions: 72 h
[21] = system: normal primary NK cells, pool 2 (3 donors) (IL-2 2.5 ng/mL); test: as above; conditions: 72 h
[22] = system: normal primary NK cells, pool 1 (3 donors) (IL-2 2.5 ng/mL); test: as above; conditions: 72 h
[23] = system: DERL-7 (IL-2 2.5 ng/mL); test: as above; conditions: 72 h
[24] = system: IMC-1 (IL-2 20 ng/mL); test: as above; conditions: 72 h
[25] = system: NKL (IL-2 2.5 ng/mL); test: as above; conditions: 72 h
[26] = system: NK-YS (IL-2 2.5 ng/mL); test: as above; conditions: 72 h
[27] = system: KAI3 (IL-2 2.5 ng/mL); test: as above; conditions: 72 h
[28] = system: KHYG-1 (IL-2 2.5 ng/mL); test: as above; conditions: 72 h

CC(C)(C)c1nc(-c2cccc(NS(=O)(=O)c3c(F)cccc3F)c2F)c(-c2ccnc(N)n2)s1 [Dabrafenib] (max concentration tested 2500 nM)
percent inhibition of viability [%]
Conditions | 0.25 nM | 2.5 nM | 25 nM | 250 nM | 2500 nM
[1] | -9.2 | -8.52 | -4.83 | -5.01 | -0.02
[2] | -8.16 | -11.7 | -14.1 | -7.91 | -1.09
[3] | -5.34 | 1.84 | -12.1 | 0.17 | 0
[4] | -10.3 | -11.7 | 7.48 | 10 | 45
[5] | -0.07 | -0.32 | 0.19 | 3.06 | 16.2
[6] | -9.64 | -5.28 | -9.79 | -4.67 | -5.57
[7] | -7.46 | -6.18 | -4.85 | -3.22 | 3.89
[8] | 3.06 | 5 | -0.47 | -3.32 | 34.5
[9] | -5.61 | -2.47 | -3.07 | -7.52 | 8.46
[10] | -14.1 | -19.1 | -20.9 | -29.2 | -29.9
[11] | -4.15 | -0.92 | 0.04 | -2.02 | 0.94
[12] | -6.1 | 1.01 | 2.43 | -4.3 | 31.2
[13] | -2.85 | -0.1 | 2.78 | 71.5 | 30.8
[15] | -3.8 | -9.82 | -8.95 | -1.61 | 6.4

Conditions | drug sensitivity score
[14] | 0
[16] | 0.89
[17] | 0.89
[18] | 0
[19] | 3.85
[20] | 0.64
[21] | 0.89
[22] | 0
[23] | 1.38
[24] | 0
[25] | 0.89
[26] | 0
[27] | 1.13
[28] | 13.4

CC[C@H](C)C(=O)O[C@H]1C[C@@H](C)C=C2C=C[C@H](C)[C@H](CC[C@@H]3C[C@@H](O)CC(=O)O3)[C@H]21 [Lovastatin] (max concentration tested 10000 nM)
percent inhibition of viability [%]
Conditions | 1 nM | 10 nM | 100 nM | 1000 nM | 10000 nM
[1] | -7.92 | -10.5 | -6.75 | -10.6 | -16
[2] | -12 | -4.31 | 2.92 | -2.72 | 4.38
[3] | 9.2 | 3.13 | 18.8 | 3.99 | -5.4
[4] | -2.63 | -14.8 | -15 | 10.9 | 16
[5] | 1.08 | 0.01 | -2.08 | 1.47 | 15
[6] | -9.06 | -2.92 | -2.71 | -5.88 | -6.36
[7] | -9.05 | -11.9 | -5.92 | 4.69 | 0.82
[8] | 2.67 | -1.74 | 3.23 | -2.63 | 7.15
[9] | 0.36 | -4.93 | -3.87 | -8.19 | 5.39
[10] | -8.92 | -7.04 | -16.3 | -3.47 | 50.5
[11] | -0.66 | -1.57 | -0.61 | 9.14 | 57.5
[12] | 0.53 | 3.49 | -3.97 | 0.77 | 14
[13] | 0.32 | -1.28 | -1.4 | 5.79 | 9.85
[15] | 0.56 | -5.1 | -9.52 | -6.29 | -8.93

Conditions | drug sensitivity score
[14] | 0
[16] | 0
[17] | 0
[18] | 0
[19] | 1.12
[20] | 0.36
[21] | 0
[22] | 0
[23] | 0
[24] | 0
[25] | 2.39
[26] | 4.64
[27] | 0.22
[28] | 0
